Laboratory results reported in patent publication US9164109B2, “Use of probes for unbound metabolites” (priority 2006, dated 2015).

Biological target: T1, HSA (Homo sapiens, UniProt P02768)
T1 construct: from tissue; host or cells: blood plasma of healthy adult donors, diluted to 1%
Test: Equilibrium-binding model of UCB and HSA
Settings: value used to calculate model [UCBf], [HSA]=6.5 μM, FIG. 2
Experimental: Investigations of the effects of FFA on our UCB probes are necessary because the probes are constructed from FABP mutants and FFA are abundant in plasma. Interference testing of every possible component of plasma, however, is not feasible. Therefore UCBf was measured in samples of diluted plasma, from 6 healthy adult donors, titrated with UCB. Because the [UCBf] is determined by the UCB:HSA ratio, the [HSA] of each plasma sample was measured using a Bromcresol Green Albumin Determination Kit from Sigma-Aldrich. HSA concentrations were similar for all samples and ranged from 620 to 680 μM. Plasma [FFAu] was measured with ADIFAB2 and ranged from 1.0 to 3.6 nM. The L24P19C7 probe at 0.5 μM was used to measure [UCBf] in 1% plasma (i.e., 6.2 to 6.8 μM HSA) titrated with UCB (FIG. 2). This probe has the following mutations with reference to rat Intestinal Fatty Acid Binding Protein (SEQ ID NO: 4): Y14R M18L L38V V60R A72L A73F R106C Q115R and Y117D. Without the addition of UCB, all samples yielded a [UCBf] of nearly zero, in good agreement with the 0 to 1 nM [UCBf] expected for a healthy adult. […] Indeed, the increase was consistent with the change in [UCBf] predicted using the equilibrium-binding model, confirming the accuracy of the probe in plasma.

T1 sequence (P02768 25-609): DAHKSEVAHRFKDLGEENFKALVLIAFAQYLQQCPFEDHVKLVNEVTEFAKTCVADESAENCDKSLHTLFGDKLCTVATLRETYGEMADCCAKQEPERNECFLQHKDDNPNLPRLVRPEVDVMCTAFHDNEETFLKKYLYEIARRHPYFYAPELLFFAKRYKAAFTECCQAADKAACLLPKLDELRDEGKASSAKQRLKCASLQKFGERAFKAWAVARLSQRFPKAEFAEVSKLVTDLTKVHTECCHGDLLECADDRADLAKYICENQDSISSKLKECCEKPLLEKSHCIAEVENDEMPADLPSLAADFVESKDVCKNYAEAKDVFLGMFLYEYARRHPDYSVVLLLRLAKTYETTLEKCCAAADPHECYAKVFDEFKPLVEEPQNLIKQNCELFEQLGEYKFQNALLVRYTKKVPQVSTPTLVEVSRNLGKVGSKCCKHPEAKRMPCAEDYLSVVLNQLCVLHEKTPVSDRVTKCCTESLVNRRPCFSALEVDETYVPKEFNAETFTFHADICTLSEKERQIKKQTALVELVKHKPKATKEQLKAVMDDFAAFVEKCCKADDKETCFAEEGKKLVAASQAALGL

Kd: 19 nM
Compound: C=CC1=C(C)/C(=C/c2[nH]c(Cc3[nH]c(/C=C4\NC(=O)C(C)=C4C=C)c(C)c3CCC(=O)O)c(CCC(=O)O)c2C)NC1=O [UCB, unconjugated bilirubin]
